Data as given in patent US12162890B2 (Novartis AG, priority 2015, dated 2024).

target: HEK293 cells with stable expression of the GRIN1 gene and tetracycline-inducible expression of the GRIN2B gene (NMDA receptor, NR2B) (Homo sapiens, UniProt Q13224); experiment: Fluo-8 Ca2+ flux assay: reversal of Ro 25-6981-mediated suppression of the Ca2+ response to co-agonist (glutamate/glycine); format: cell-based; conditions: reversal of the Ro 25-6981 suppression of the Ca2+ response to co-agonist (glutamate/glycine); note: test concentration or dose not given here
Sequence (Q13224 27-1484, other chains not shown): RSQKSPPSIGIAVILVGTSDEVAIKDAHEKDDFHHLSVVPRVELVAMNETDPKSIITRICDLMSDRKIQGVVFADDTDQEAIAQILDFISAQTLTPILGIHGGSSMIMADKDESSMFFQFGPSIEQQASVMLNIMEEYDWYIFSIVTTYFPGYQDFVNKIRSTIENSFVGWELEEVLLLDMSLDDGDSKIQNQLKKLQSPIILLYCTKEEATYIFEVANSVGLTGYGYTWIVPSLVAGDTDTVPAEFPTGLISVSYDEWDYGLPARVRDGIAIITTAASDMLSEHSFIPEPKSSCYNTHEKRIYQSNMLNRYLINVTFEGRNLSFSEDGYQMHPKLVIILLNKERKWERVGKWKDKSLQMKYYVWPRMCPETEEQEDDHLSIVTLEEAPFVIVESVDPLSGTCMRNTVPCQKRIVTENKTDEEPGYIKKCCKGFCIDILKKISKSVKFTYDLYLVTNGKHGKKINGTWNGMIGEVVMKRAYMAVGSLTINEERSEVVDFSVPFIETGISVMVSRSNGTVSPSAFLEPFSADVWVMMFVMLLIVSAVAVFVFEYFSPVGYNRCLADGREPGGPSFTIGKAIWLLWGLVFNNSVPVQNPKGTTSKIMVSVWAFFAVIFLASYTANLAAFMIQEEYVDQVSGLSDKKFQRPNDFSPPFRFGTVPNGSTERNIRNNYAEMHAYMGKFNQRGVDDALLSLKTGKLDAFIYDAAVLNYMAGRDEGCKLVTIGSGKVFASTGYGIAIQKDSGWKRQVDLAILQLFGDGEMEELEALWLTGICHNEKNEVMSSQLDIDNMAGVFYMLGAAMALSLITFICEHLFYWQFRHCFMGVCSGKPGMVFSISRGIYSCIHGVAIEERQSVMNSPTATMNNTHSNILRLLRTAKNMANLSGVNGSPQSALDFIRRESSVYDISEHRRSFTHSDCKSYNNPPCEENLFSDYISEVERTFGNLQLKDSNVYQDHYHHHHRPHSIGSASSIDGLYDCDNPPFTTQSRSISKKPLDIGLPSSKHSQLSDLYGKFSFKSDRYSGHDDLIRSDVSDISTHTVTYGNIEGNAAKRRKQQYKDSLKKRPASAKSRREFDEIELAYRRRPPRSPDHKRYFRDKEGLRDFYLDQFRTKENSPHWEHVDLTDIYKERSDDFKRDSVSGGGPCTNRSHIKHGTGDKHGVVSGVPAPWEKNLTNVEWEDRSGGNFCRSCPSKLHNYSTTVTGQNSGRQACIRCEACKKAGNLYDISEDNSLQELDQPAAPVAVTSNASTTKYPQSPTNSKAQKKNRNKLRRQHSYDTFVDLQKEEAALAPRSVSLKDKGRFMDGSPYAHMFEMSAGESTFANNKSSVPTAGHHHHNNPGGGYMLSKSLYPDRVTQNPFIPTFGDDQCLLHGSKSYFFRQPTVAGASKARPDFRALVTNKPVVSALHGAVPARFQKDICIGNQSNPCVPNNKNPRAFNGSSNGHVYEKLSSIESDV

Response Recovered (%)	Structure (SMILES)
8%	O=C(Cn1nnc2scc(-c3ccc(Cl)c(C(F)(F)F)c3)c2c1=O)N1CCCC1 [Example 331, 5-[4-chloro-3-(trifluoromethyl)phenyl]-3-[2-oxo-2-(pyrrolidin-1-yl)ethyl]-3H,4H-thieno[2,3-d][1,2,3]triazin-4-one]
8%	O=C(Cn1ncc2scc(-c3ccc(F)c(Cl)c3)c2c1=O)N1CC(F)(F)C1 [Example 341, 3-(3-chloro-4-fluorophenyl)-5-(2-(3,3-difluoroazetidin-1-yl)-2-oxoethyl)thieno[2,3-d]pyridazin-4(5H)-one]
34%	CCC1(F)CN(C(=O)Cn2ccn3ccc(-c4cnc(Cl)c(C)c4)c3c2=O)C1 [Example 410, 8-(6-chloro-5-methylpyridin-3-yl)-2-(2-(3-ethyl-3-fluoroazetidin-1-yl)-2-oxoethyl)pyrrolo[1,2-a]pyrazin-1(2H)-one]
3%	O=C(Cn1cnc2csc(-c3ccc(Cl)cc3)c2c1=O)N1CCC1 [Example 349, 3-(2-(azetidin-1-yl)-2-oxoethyl)-5-(4-chlorophenyl)thieno[3,4-d]pyrimidin-4(3H)-one]
1%	COC1CN(C(=O)Cn2cnc3ccn(-c4ccc(Cl)cc4)c3c2=O)C1 [Example 372, 5-(4-chlorophenyl)-3-(2-(3-methoxyazetidin-1-yl)-2-oxoethyl)-3H-pyrrolo[3,2-d]pyrimidin-4(5H)-one]
7%	O=C(Cn1ncc2scc(-c3ccc(F)c(Cl)c3)c2c1=O)N1CCCC1 [Example 337, 3-(3-chloro-4-fluorophenyl)-5-(2-oxo-2-(pyrrolidin-1-yl)ethyl)thieno[2,3-d]pyridazin-4(5H)-one]
78%	O=C(Cn1ccc2c(c(-c3ccc(Cl)c(Cl)c3)cn2-c2ccccn2)c1=O)N1CCC(F)C1 (stereo not drawn) [Example 229, 3-(3,4-dichlorophenyl)-5-(2-(3-fluoropyrrolidin-1-yl)-2-oxoethyl)-1-(pyridin-2-yl)-1H-pyrrolo[3,2-c]pyridin-4(5H)-one]
140%	Cn1cc(-n2cc(-c3ccc(F)c(C(F)(F)F)c3)c3c(=O)n(CC(=O)N4CC(C)(F)C4)ccc32)cn1 [Example 236, 3-(4-fluoro-3-(trifluoromethyl)phenyl)-5-(2-(3-fluoro-3-methylazetidin-1-yl)-2-oxoethyl)-1-(1-methyl-1H-pyrazol-4-yl)-1H-pyrrolo[3,2-c]pyridin-4(5H)-one]
72%	O=C(Cn1ccn2c(Br)cc(-c3ccc(F)c(C(F)(F)F)c3)c2c1=O)N1CCC(F)C1 (stereo not drawn) [Example 423, 6-bromo-8-(4-fluoro-3-(trifluoromethyl)phenyl)-2-(2-(3-fluoropyrrolidin-1-yl)-2-oxoethyl)pyrrolo[1,2-a]pyrazin-1(2H)-one]
49%	Cc1nnc(-n2cc(-c3ccc(F)c(Cl)c3)c3c(=O)n(CC(=O)N4CCC(F)C4)ccc32)o1 (stereo not drawn) [Example 264, 3-(3-chloro-4-fluorophenyl)-5-(2-(3-fluoropyrrolidin-1-yl)-2-oxoethyl)-1-(5-methyl-1,3,4-oxadiazol-2-yl)-1H-pyrrolo[3,2-c]pyridin-4(5H)-one]
9%	O=C(Cn1cnc2snc(-c3ccc(Cl)cc3)c2c1=O)N1CCCC1C(F)(F)F (stereo not drawn) [Example 382, 3-(4-chlorophenyl)-5-(2-oxo-2-(2-(trifluoromethyl)pyrrolidin-1-yl)ethyl)isothiazolo[5,4-d]pyrimidin-4(5H)-one]
43%	O=C(Cn1ccc2[nH]cc(-c3cnc(Cl)c(C(F)(F)F)c3)c2c1=O)N1CC(F)C(F)C1 (stereo not drawn) [Example 221, 3-(6-chloro-5-(trifluoromethyl)pyridin-3-yl)-5-(2-(3,4-difluoropyrrolidin-1-yl)-2-oxoethyl)-1H-pyrrolo[3,2-c]pyridin-4(5H)-one]

Second part, the compound before the results:

Structure (SMILES)	Response Recovered (%)
O=C(Cn1cc(CN2CCC2)c2scc(-c3ccc(F)c(C(F)(F)F)c3)c2c1=O)N1CCC(F)C1 (stereo not drawn) [Example 118, 7-(azetidin-1-ylmethyl)-3-(4-fluoro-3-(trifluoromethyl)phenyl)-5-(2-(3-fluoropyrrolidin-1-yl)-2-oxoethyl)thieno[3,2-c]pyridin-4(5H)-one]	77%
O=C(Cn1ccc2scc(-c3ccc(Cl)c(Cl)c3)c2c1=O)N1CCC(F)C1 (stereo not drawn) [Example 10, 3-(3,4-dichlorophenyl)-5-(2-(3-fluoropyrrolidin-1-yl)-2-oxoethyl)thieno[3,2-c]pyridin-4(5H)-one]	102%
O=C(Cn1cc(CO)c2scc(-c3ccc(Cl)c(Cl)c3)c2c1=O)N1CCC(F)C1 (stereo not drawn) [Example 131, 3-(3,4-dichlorophenyl)-5-(2-(3-fluoropyrrolidin-1-yl)-2-oxoethyl)-7-(hydroxymethyl) thieno[3,2-c]pyridin-4(5H)-one]	72%
O=C(Cn1cnc2cccc(-c3ccc(Cl)cc3)c2c1=O)N1CCCC1 [Example 295, 5-(4-chlorophenyl)-3-(2-oxo-2-(pyrrolidin-1-yl)ethyl)quinazolin-4(3H)-one]	1%
O=C(Cn1ccc2scc(-c3ccc(Cl)c(Cl)c3)c2c1=O)N1CC2(CC2)C1 [Example 78, 3-(3,4-dichlorophenyl)-5-(2-oxo-2-(5-azaspiro[2.3]hexan-5-yl)ethyl)thieno[3,2-c]pyridin-4(5H)-one]	53%
Cn1cc(-c2ccc(Cl)cc2)c2c(=O)n(CC(=O)N3CCCC3C(F)(F)F)cnc21 (stereo not drawn) [Example 153, 5-(4-chlorophenyl)-7-methyl-3-(2-oxo-2-(2-(trifluoromethyl)pyrrolidin-1-yl)ethyl)-3H-pyrrolo[2,3-d]pyrimidin-4(7H)-one]	35%
O=C(Cn1ccc2scc(-c3ccc(Cl)c(C(F)(F)F)c3)c2c1=O)N1CCCC1 [Example 1, 3-(4-chloro-3-(trifluoromethyl)phenyl)-5-(2-oxo-2-(pyrrolidin-1-yl)ethyl)thieno[3,2-c]pyridin-4(5H)-one]	83%
CC1(F)CN(C(=O)Cn2ccc3scc(-c4ccc(Cl)c(F)c4)c3c2=O)C1 [Example 18, 3-(4-chloro-3-fluorophenyl)-5-(2-(3-fluoro-3-methylazetidin-1-yl)-2-oxoethyl)thieno[3,2-c]pyridin-4(5H)-one]	120%
O=C(Cn1ccc2[nH]cc(-c3ccc(F)c(Cl)c3)c2c1=O)N1CCCC1 [Example 208, 3-(3-chloro-4-fluorophenyl)-5-(2-oxo-2-(pyrrolidin-1-yl)ethyl)-1H-pyrrolo[3,2-c]pyridin-4(5H)-one]	60%
CCC1(F)CN(C(=O)Cn2ccc3scc(-c4cnc(Cl)c(Cl)c4)c3c2=O)C1 [Example 75, 3-(5,6-dichloropyridin-3-yl)-5-(2-(3-ethyl-3-fluoroazetidin-1-yl)-2-oxoethyl)thieno[3,2-c]pyridin-4(5H)-one]	78%
O=C(Cn1cnc2[nH]cc(-c3ccc(F)c(C(F)(F)F)c3)c2c1=O)N1CCC(F)C1 (stereo not drawn) [Example 174, 5-(4-fluoro-3-(trifluoromethyl)phenyl)-3-(2-(3-fluoropyrrolidin-1-yl)-2-oxoethyl)-3H-pyrrolo[2,3-d]pyrimidin-4(7H)-one]	91%
O=C(Cn1cnc2[nH]cc(-c3ccc(Cl)cc3)c2c1=O)N1CC(F)(F)C1 [Example 154, 5-(4-chlorophenyl)-3-(2-(3,3-difluoroazetidin-1-yl)-2-oxoethyl)-3H-pyrrolo[2,3-d]pyrimidin-4(7H)-one]	36%
